In paper PMC6156125, “Chemistry and Hypoglycemic Activity of GPR119 Agonist ZB-16” (Frontiers in Endocrinology, 2018):
Values after ≈ are worked out from the molar mass of the structure shown.

How the values were obtained:
human GPR119 (hGPR119) = target: T1, human GPR119 (hGPR119) (Homo sapiens, UniProt Q8TDV5); experiment: Specific (agonistic) activity in vitro, cAMP increase (Lance Ultra cAMP kit) in CHO-K1 cells expressing hGPR119; format: cell-based; conditions: CHO-K1 hGPR119, cAMP
T1 construct: expressed in transfected cells; host or cells: CHO-K1 (Chinese hamster ovary)
T1 sequence (Q8TDV5 1-335): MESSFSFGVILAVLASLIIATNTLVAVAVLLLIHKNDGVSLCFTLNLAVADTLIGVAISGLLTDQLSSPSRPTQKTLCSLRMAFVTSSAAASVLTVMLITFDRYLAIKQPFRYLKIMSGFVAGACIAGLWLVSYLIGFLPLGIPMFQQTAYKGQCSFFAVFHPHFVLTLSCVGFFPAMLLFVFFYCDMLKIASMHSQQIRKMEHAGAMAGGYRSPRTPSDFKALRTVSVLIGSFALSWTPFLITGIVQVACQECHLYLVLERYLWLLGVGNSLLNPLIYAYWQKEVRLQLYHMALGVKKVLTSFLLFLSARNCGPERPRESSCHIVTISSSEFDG
Procedure: Specific activity was evaluated using an immortalized Chinese hamster ovary cell line CHO-K1 steadily expressed human GPR119 (hGPR119). The cells (10^7 ml^−1) were cultured in Dulbecco's modified Eagle medium (DMEM) modified with 10% fetal bovine serum (FBS), revolved continuously at 50 rpm at 37°C in 8% CO2 for 3–4 days. Lance Ultra cAMP kit (Perkin Elmer, Waltham, MA, USA) was chosen as the experimental platform ([13]). The experiments were performed in accordance to the manufacturer's instructions. The agonistic activity of the test compounds was estimated by the increase in intracellular cAMP concentration, assuming the hGPR119 activation is followed by the activation of cellular adenylate cyclase, which increases intracellular cAMP levels ([4], [14]). Known agonists of hGPR119 receptors were used as positive controls to determine the maximal possible effect (MPE). The activity of test compounds was expressed in terms of median effective concentration (EC50).

physchem = conditions: kinetic from dmso stock
[1] = Biotransformation in vitro, microsomal stability (human); format: in vitro ADME; conditions: for ER / CLh: Human microsomal fraction; for CLh: in mL/min/kg (unit assumed); for microsomal CLint at 0.5 μM / half-life at 0.5 μM: liver microsomal fraction; for half-life at 0.5 μM: NADPH, read-out: t1/2, min
Procedure: (§1) The metabolism of the compounds was studied in commercially available microsomal fractions derived from human and rat hepatocytes. Test compounds (0.5 μM) were incubated with microsomal fractions in the presence of NADPH during 30 min in a shaker at 37°C. Reactions were stopped at 0, 5, 10, 15, and 30 min by adding acetonitrile. After proteins precipitation, the remaining amount of the test compound in the supernatant was detected with high performance liquid chromatography tandem-mass spectrometry (HPLC-MS/MS) method using Agilent 1260 liquid chromatograph (Agilent Technologies, Santa Clara, CA, USA) and a QTRAP6500 triple quadrupole mass spectrometer with a TurboIonSpray electro-spraying module (ABSciex, Foster City, CA, USA) ([15]). Incubation was performed twice, with at least 2 measurements for each replicate (n ≥ 3). The half-life (T1/2), the clearance in vitro (CLint) and the remaining amount of substance (% of initial quantity) were calculated.

[2] = Biotransformation in vitro, microsomal stability (rat); format: in vitro ADME; conditions: for ER / CLh: Rat microsomal fraction; for CLh: in mL/min/kg (unit assumed); for microsomal CLint at 0.5 μM / half-life at 0.5 μM: liver microsomal fraction; for half-life at 0.5 μM: NADPH, read-out: t1/2, min
Procedure: as §1

[3] = Biotransformation in vitro, microsomal stability (mouse); format: in vitro ADME
Procedure: as §1

CYP1A2 = target: T2, CYP1A2 (Homo sapiens, UniProt P05177); experiment: CYP inhibition, Vivid CYP450 Screening Kit; format: in vitro ADME; conditions: 0.0046 to 10 μM tested
T2 construct: purchased Invitrogen Corporation, Carlsbad, CA, USA
T2 sequence (P05177 1-516): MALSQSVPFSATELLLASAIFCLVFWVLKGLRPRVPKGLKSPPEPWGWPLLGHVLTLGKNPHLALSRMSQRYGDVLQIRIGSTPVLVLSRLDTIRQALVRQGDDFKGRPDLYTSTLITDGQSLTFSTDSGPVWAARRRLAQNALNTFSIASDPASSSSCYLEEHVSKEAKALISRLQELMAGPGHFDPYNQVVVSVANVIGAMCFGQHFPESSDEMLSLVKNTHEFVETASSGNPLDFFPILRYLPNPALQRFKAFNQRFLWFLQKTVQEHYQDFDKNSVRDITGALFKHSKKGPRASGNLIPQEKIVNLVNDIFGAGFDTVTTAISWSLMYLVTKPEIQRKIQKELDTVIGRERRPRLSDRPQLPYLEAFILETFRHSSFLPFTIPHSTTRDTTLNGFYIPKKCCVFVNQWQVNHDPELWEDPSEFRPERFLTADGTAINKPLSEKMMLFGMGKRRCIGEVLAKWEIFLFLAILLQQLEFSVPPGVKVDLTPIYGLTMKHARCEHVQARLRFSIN
Procedure: (§2) Briefly, the reaction was initiated by adding NADP^+ and a substrate converted to fluorescent derivates by specific CYP isozyme. The reaction was terminated by adding 1M Tris. The fluorescence of the reaction product, which was proportional to CYP isozyme activity, was measured. […] The minimal signal was defined as the signal obtained without enzyme incubation. The inhibitory action of test compounds on the CYP isozymes was expressed in terms of median inhibitory concentration (IC50).

CYP2C19 = target: T3, CYP2C19 (Homo sapiens, UniProt P33261); experiment: CYP inhibition, Vivid CYP450 Screening Kit; format: in vitro ADME; conditions: 0.0046 to 10 μM tested
T3 construct: purchased Invitrogen Corporation, Carlsbad, CA, USA
T3 sequence (P33261 whole entry): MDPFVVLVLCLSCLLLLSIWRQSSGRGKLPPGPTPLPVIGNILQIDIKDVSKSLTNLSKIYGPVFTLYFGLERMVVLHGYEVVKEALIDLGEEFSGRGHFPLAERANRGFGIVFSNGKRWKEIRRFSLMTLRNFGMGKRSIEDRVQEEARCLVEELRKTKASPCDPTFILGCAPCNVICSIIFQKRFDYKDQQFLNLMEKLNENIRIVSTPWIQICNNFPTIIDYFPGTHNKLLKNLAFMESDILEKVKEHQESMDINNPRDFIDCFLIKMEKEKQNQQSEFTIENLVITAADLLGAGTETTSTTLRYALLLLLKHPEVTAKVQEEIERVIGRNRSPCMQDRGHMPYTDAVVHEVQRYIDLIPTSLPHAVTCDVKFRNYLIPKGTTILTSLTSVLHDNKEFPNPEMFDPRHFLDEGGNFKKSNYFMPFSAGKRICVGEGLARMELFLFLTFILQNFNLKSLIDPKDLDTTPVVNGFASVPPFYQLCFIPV
Procedure: as §2

CYP2C9 = target: T4, CYP2C9 (Homo sapiens, UniProt P11712); experiment: CYP inhibition, Vivid CYP450 Screening Kit; format: in vitro ADME; conditions: 0.0046 to 10 μM tested
T4 construct: purchased Invitrogen Corporation, Carlsbad, CA, USA
T4 sequence (P11712 whole entry): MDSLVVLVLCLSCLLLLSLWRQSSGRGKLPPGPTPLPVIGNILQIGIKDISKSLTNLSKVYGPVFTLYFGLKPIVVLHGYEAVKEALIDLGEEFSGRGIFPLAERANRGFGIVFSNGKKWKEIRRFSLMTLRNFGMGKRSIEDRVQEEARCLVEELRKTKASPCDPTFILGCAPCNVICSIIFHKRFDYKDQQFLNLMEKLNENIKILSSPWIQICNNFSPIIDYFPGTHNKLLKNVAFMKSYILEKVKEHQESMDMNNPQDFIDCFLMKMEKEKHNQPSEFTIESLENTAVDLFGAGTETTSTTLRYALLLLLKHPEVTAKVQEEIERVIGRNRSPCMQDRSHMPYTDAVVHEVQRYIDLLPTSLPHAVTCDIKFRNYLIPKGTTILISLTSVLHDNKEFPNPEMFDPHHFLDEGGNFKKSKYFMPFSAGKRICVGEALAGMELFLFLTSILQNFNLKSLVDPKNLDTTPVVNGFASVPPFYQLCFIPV
Procedure: as §2

CYP2D6 = target: T5, CYP2D6 (Homo sapiens, UniProt P10635); experiment: CYP inhibition, Vivid CYP450 Screening Kit; format: in vitro ADME; conditions: 0.0046 to 10 μM tested
T5 construct: purchased Invitrogen Corporation, Carlsbad, CA, USA
T5 sequence (P10635 whole entry): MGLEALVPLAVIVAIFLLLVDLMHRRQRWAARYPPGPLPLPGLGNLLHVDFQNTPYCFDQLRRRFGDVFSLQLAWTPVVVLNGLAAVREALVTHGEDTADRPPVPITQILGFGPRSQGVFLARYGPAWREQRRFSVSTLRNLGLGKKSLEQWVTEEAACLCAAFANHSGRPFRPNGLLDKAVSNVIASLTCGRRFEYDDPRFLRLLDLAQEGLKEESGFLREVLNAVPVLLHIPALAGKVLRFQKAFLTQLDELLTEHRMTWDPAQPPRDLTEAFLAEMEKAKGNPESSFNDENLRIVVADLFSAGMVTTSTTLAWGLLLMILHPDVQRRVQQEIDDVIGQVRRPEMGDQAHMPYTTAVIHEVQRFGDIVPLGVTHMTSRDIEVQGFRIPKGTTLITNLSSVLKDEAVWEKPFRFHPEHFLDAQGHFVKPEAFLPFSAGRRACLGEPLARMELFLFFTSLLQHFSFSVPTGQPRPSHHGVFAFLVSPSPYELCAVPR
Procedure: as §2

CYP3A4 = target: T6, CYP3A4 (Homo sapiens, UniProt P08684); experiment: CYP inhibition, Vivid CYP450 Screening Kit; format: in vitro ADME; conditions: 0.0046 to 10 μM tested
T6 construct: purchased Invitrogen Corporation, Carlsbad, CA, USA
T6 sequence (P08684 whole entry): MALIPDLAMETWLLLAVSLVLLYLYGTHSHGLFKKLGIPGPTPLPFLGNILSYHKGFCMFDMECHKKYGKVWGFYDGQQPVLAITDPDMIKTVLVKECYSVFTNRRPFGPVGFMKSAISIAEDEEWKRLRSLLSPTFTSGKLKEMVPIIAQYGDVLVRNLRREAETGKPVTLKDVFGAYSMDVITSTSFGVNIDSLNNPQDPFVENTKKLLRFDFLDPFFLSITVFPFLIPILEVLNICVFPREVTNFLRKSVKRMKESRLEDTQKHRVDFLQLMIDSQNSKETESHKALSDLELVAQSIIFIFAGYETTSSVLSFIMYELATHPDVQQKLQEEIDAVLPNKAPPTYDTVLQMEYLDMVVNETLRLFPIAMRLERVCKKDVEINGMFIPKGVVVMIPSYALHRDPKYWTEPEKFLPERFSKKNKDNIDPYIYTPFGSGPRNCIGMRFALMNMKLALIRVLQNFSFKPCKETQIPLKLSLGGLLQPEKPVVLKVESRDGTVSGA
Procedure: as §2

hERG potassium channels = target: T7, hERG potassium channels (Homo sapiens, UniProt Q12809); experiment: Cardiac toxicity, Predictor hERG fluorescence polarization binding
T7 construct: purchased Invitrogen Corporation, Carlsbad, CA, USA
T7 sequence (Q12809 whole entry): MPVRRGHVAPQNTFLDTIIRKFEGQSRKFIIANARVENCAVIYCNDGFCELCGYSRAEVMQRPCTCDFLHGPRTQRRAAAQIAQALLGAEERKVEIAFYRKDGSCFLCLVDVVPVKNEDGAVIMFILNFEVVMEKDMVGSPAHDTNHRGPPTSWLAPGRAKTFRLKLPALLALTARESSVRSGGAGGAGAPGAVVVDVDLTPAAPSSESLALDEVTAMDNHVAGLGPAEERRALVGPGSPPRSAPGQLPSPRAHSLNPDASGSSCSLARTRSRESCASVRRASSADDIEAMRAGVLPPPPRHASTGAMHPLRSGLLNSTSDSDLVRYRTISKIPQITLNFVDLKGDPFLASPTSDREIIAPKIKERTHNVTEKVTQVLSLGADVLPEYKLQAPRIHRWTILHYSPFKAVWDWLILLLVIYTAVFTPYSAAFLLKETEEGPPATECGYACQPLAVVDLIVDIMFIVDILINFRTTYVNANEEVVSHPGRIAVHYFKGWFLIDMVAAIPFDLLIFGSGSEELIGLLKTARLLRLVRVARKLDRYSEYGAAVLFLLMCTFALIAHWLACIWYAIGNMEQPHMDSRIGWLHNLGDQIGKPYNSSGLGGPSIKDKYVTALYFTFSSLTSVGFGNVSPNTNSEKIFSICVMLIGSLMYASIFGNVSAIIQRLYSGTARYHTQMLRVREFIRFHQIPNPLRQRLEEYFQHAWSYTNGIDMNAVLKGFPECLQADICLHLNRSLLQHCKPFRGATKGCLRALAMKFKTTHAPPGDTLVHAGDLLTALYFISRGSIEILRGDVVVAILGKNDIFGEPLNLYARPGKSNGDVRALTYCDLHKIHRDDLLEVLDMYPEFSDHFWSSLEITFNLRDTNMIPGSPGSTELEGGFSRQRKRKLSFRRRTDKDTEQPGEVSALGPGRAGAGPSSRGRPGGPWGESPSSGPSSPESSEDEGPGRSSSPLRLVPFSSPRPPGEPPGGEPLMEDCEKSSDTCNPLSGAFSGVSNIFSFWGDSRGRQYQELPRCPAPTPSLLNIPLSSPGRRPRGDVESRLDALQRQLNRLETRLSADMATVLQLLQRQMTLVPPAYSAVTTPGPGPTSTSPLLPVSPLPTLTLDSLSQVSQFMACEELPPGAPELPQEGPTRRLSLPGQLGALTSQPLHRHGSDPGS
Procedure: Cardiac toxicity was evaluated by estimating the influence of each substance on hERG potassium channels using the in vitro test system Invitrogen® PredictorTM hERG (Invitrogen Corporation, Carlsbad, CA, USA), containing Predictor hERG membrane preparations, fluorescent tracer stock solution and an assay buffer solution. Experimental procedures were conducted in accordance with the PredictorTM hERG test system's manufacturer instructions. Assays were performed in 384-well microplates. Each well contained 5 μL aliquot of each concentration of test compound, 10 μL of (2X) membrane preparation and 5 μL of working tracer solution. The cumulative reaction volume was 20 μl with 1% of DMSO ([19]). All procedures were performed at 4 replicates for each concentration. The plate was allowed to incubate at room temperature for at least 1 h prior to fluorescence polarization measurements performed with a microplate reader Infinite M1000 PRO (Tecan).

[4] = test system: rats with streptozotocin-nicotinamide (STZ-NA) induced T2D; experiment: Hypoglycemic activity after continuous (28 days) oral administration in T2D rat model, OGTT; format: in vivo; conditions: daily oral ZB-16 1 mg/kg or sitagliptin 10 mg/kg for 28 days, STZ-NA T2D
Procedure: Procedures were performed in 40 female Wistar rats weighing 250–280 g. Streptozotocin-nicotinamide-induced rat model of T2D was used ([24], [25]). Briefly, streptozotocin (Sigma, St. Louis, MO, USA) was administered i.p. to overnight fasted rats (65 mg/kg in 100 mmol/l citrate buffer, Ph 4.5). Nicotinamide (Sigma, St. Louis, MO, USA) (230 mg/kg) dissolved in saline was administered i.p. 15 min before streptozotocin. STZ-NA T2D had been confirmed 72 h after in rats with blood glucose levels in a range 9–14 mmol/l measured in fasting (6 h) conditions. […] Following the continuous oral administration of sitagliptin (10 mg/kg), ZB-16 (1 mg/kg) or saline during 28 days STZ-NA T2D confirmation the fasting blood glucose levels were measured, and oral glucose tolerance test (OGTT) was performed. For OGTT rats received an oral dose of […] glucose dissolved in saline; blood glucose levels were monitored every 30 min for 2 h after glucose administration. Sitagliptin dose was chosen in accordance with published data ([26]).

[5] = Britton-Robinson universal buffer, pH 2, aqueous buffer
[6] = Britton-Robinson universal buffer, pH 4, aqueous buffer
[7] = Britton-Robinson universal buffer, pH 7, aqueous buffer

Structure (SMILES)	EC50 (human GPR119 (hGPR119)) [nM]	ER [1]	CLh [1]	microsomal CLint at 0.5 μM [1] [µL/min/mg]	half-life at 0.5 μM [1] [min]	ER [2]	CLh [2]	microsomal CLint at 0.5 μM [2] [µL/min/mg]	half-life at 0.5 μM [2] [min]	solubility (physchem; [5]) [µM]	solubility (physchem; [6]) [µM]	solubility (physchem; [7]) [µM]	other results
CCN1C(=O)c2ccccc2S(=O)(=O)c2ccc(C(=O)NCCc3ccc(Cl)cc3)cc21 [C530-0315]	71.3	–	–	–	–	–	–	–	–	–	–	–	–
CCN1C(=O)c2ccccc2S(=O)(=O)c2ccc(C(=O)NCc3ccc(F)cc3)cc21 [C530-0339]	10700	–	–	–	–	–	–	–	–	–	–	–	–
CC/C(=C(/CC)c1ccc(O)cc1)c1ccc(O)cc1 [Diethylstilbestrol, reference compound]	–	–	–	–	–	–	–	–	–	–	–	–	Solubility (μM) UB, 2% DMSO pH 2 (pH 2): 15 μM; Solubility (μM) UB, 2% DMSO pH 4 (pH 4): 14 μM; Solubility (μM) UB, 2% DMSO pH 7 (pH 7): 14 μM; solubility (physchem; pH 2, aqueous buffer): 12 µM (≈ 3.22 µg/mL); solubility (physchem; pH 4, aqueous buffer): 10 µM (≈ 2.68 µg/mL); solubility (physchem; pH 7, aqueous buffer): 12 µM (≈ 3.22 µg/mL)
CC(C)(C)OC(=O)N1CCC(COc2ccc(-c3ccc4c(c3)OCS4(=O)=O)cc2F)CC1 [ZB-09]	–	0.94	20.44	666	4.16	0.74	40.97	89.2	31.1	< 3	< 3	< 3	EC50 (human GPR119 (hGPR119); values of the text): 4 nM; CLh ([3]; Mouse microsomal fraction): 84.06; ER ([3]; Mouse microsomal fraction): 0.93; microsomal CLint at 0.5 μM ([3]; liver microsomal fraction): 324 µL/min/mg; half-life at 0.5 μM ([3]; liver microsomal fraction, read-out: t1/2, min): 8.57 min
CC(C)OC(=O)N1CCC(COc2ccc(-c3ccc4c(c3)OCS4(=O)=O)cc2F)CC1 [ZB-17]	12.5	–	–	–	–	–	–	–	–	< 3	< 3	< 3	–
O=S1(=O)COc2cc(-c3ccc(OCC4CCN(CC(F)(F)F)CC4)c(F)c3)ccc21 [ZB-18]	63.5	–	–	–	–	–	–	–	–	25 (≈ 11.5 µg/mL)	< 3	< 3	–
CC(C)(C)OC(=O)N1CCC(COc2ccc(-c3ccc4c(c3)OCS4(=O)=O)cn2)CC1 [ZB-19]	11	0.95	20.66	1110	2.5	0.81	44.29	126	21.9	< 3	< 3	< 3	–
O=S1(=O)COc2cc(-c3ccc(OCC4CCN(c5ncc(Cl)cn5)CC4)nc3)ccc21 [ZB-20]	29.3	0.76	16.57	68	40.8	0.41	22.53	21.2	131	< 3	< 3	< 3	EC50 (human GPR119 (hGPR119); values of the text): 29 nM; IC50 (CYP1A2): > 10000 nM; IC50 (CYP2C19): > 10000 nM; IC50 (CYP2C9): > 10000 nM; IC50 (CYP2D6): > 10000 nM; IC50 (CYP3A4): > 10000 nM; Average polarization mP (n = 4) (hERG potassium channels; 1 μM): 261 mP; Unbound hERG % (hERG potassium channels; 1 μM): 89%; Average polarization mP (n = 4) (hERG potassium channels; 10 μM): 263 mP; Unbound hERG % (hERG potassium channels; 10 μM): 91%
N[C@@H](CC(=O)N1CCn2c(nnc2C(F)(F)F)C1)Cc1cc(F)c(F)cc1F [sitagliptin, reference compound]	–	–	–	–	–	–	–	–	–	–	–	–	blood glucose levels [4]: reduction
